Patent US7074798B2, “Xanthine derivative and DPPIV inhibitor” (Eisai Co., Ltd, priority 2002, dated 2006)
Counter-ions that a name gives are not always drawn.

tested on: male C57BL/6N mouse; assay: Effect on glucose tolerance of normal mouse (oral glucose loading); assay type: in vivo; conditions: 2 h, 0.3 mg/kg oral, 30 min before glucose 2 g/kg, AUC0-120, 0.5% MC = 100%, NVP DPP728 10 mg/kg = 0%, lower = better, read-out: Improvement degree of glucose tolerance
Description: Effect on Glucose Tolerance of Normal Mouse
male C57BL/6N mouse (purchased from CHARLES RIVER JAPAN, INC.)
A suspension of the test compound and NVP DPP728 or 0.5% MC solution (solvent control group) were orally administered at a dose of 10 mL/kg, and after 30 minutes, glucose solution was orally administered at a dose of 10 mL/kg. Glucose was orally administered at a dose of 2 g/kg.
Immediately before the administration of the test substance and NVP DPP728, immediately before the administration of the glucose solution and at 30 minutes, 60 minutes, and 120 minutes after the administration, a tail vein of the mouse was injured to slightly bleed by a razor under no anesthesia. 10 μl of blood was collected and was immediately mixed with 0.6M perchloric acid (140 μl). Glucose in the supernatant obtained by centrifugation (1500 g, 10 minutes, 4° C., refrigerated centrifuge GS-6KR, Beckman Instruments, Inc.) was measured using Glucose CII-Test Wako (Wako Pure Chemical Industries, Ltd.).
Area under the curve of blood glucose level-time (AUC0-120; Area Under the Curve) from the time of administration of glucose to 120 minutes after administration was calculated for respective administration groups, i.e., 0.5% MC solution, NVP DPP728, and the test compounds. Taking the AUC0-120 of the 0.5% MC solution administration group as 100% and the AUC0-120 of NVP DPP728 (10 mg/kg) administration group as 0%, the improvement degree of the glucose tolerance of a test compound was calculated using the following formula: Improvement degree of the glucose tolerance (%)=(AUC0-120 of the test compound−AUC0-120 of the NVP DPP728 (10 mg/kg) administration group)/(AUC0-120 of the 0.5% MC solution administration group−AUC0-120 of the NVP DPP728 (10 mg/kg) administration group)×100. • The lower the % value, the greater the improvement degree of the glucose tolerance will be.

SMILES	response vs control in vivo at 0.3 mg/kg
CC#CCn1c(N2CCNCC2)nc2c1c(=O)n(CC(=O)c1ccccc1)c(=O)n2C [Example 30, 7-(2-Butynyl)-3-methyl-1-(2-oxo-2-phenylethyl)-8-(piperazin-1-yl)-3,7-dihydropurine-2,6-dione trifluoroacetate]	49.4%

same assay, conditions: 2 h, 1 mg/kg oral, 30 min before glucose 2 g/kg, AUC0-120, 0.5% MC = 100%, NVP DPP728 10 mg/kg = 0%, lower = better, read-out: Improvement degree of glucose tolerance

SMILES	response vs control in vivo at 1 mg/kg
CC#CCn1c(N2CCNCC2)nc2c1c(=O)[nH]c(=O)n2C [Example 14, 7-(2-Butynyl)-3-methyl-8-(piperazin-1-yl)-3,7-dihydropurine-2,6-dione]	41.9%
CC#CCn1c(N2CCNCC2)nc2c1c(=O)n(CC(=O)c1ccccc1)c(=O)n2C [Example 30, 7-(2-Butynyl)-3-methyl-1-(2-oxo-2-phenylethyl)-8-(piperazin-1-yl)-3,7-dihydropurine-2,6-dione trifluoroacetate]	-14.3%
CC#CCn1c(N2CCNCC2)nc2c1c(=O)n(Cc1ccccc1C#N)c(=O)n2C [Example 39, 2-[7-(2-Butynyl)-3-methyl-2,6-dioxo-8-(piperazin-1-yl)-2,3,6,7-tetrahydropurin-1-ylmethyl]-benzonitrile trifluoroacetate]	45.5%
C=Cc1ccccc1-n1c(N2CCNCC2)nc2c1c(=O)[nH]c(=O)n2C [Example 174, 7-(2-Vinylphenyl)-3-methyl-8-(piperazin-1-yl)-3,7-dihydropurine-2,6-dione]	24.3%

same assay, conditions: 2 h, 3 mg/kg oral, 30 min before glucose 2 g/kg, AUC0-120, 0.5% MC = 100%, NVP DPP728 10 mg/kg = 0%, lower = better, read-out: Improvement degree of glucose tolerance

SMILES	response vs control in vivo at 3 mg/kg
CC#CCn1c(N2CCNCC2)nc2c1c(=O)n(C)c(=O)n2C [Example 10, 7-(2-Butynyl)-1,3-dimethyl-8-(piperazin-1-yl)-3,7-dihydropurine-2,6-dione]	0.5%
CC#CCn1c(N2CCNCC2)nc2c1c(=O)n(CC(=O)OC)c(=O)n2C [Example 15, [7-(2-Butynyl)-3-methyl-2,6-dioxo-8-(piperazin-1-yl)-2,3,6,7-tetrahydropurin-1-yl]acetic acid methyl ester trifluoroacetate]	-17.2%
CC#CCn1c(N2CCNCC2)nc2c1c(=O)n(CCOCC)c(=O)n2C [Example 18, 7-(2-Butynyl)-1-(2-ethoxyethyl)-3-methyl-8-(piperazin-1-yl)-3,7-dihydropurine-2,6-dione trifluoroacetate]	9.5%
C#CCn1c(=O)c2c(nc(N3CCNCC3)n2CC#CC)n(C)c1=O [Example 19, 7-(2-Butynyl)-3-methyl-8-(piperazin-1-yl)-1-(2-propynyl)-3,7-dihydropurine-2,6-dione trifluoroacetate]	-13.1%
CC#CCn1c(=O)c2c(nc(N3CCNCC3)n2CC#CC)n(C)c1=O [Example 20, 1,7-Bis(2-butynyl)-3-methyl-8-(piperazin-1-yl)-3,7-dihydropurine-2,6-dione trifluoroacetate]	5%
CC#CCn1c(N2CCNCC2)nc2c1c(=O)n(CC#N)c(=O)n2C [Example 21, [7-(2-Butynyl)-3-methyl-2,6-dioxo-8-(piperazin-1-yl)-2,3,6,7-tetrahydropurin-1-yl]acetonitrile trifluoroacetate]	4.8%
COc1ccccc1-n1c(N2CCNCC2)nc2c1c(=O)n(C)c(=O)n2C [Example 123, 7-(2-Methoxyphenyl)-1,3-dimethyl-8-(piperazin-1-yl)-3,7-dihydropurine-2,6-dione trifluoroacetate]	17.9%
C=Cc1ccccc1-n1c(N2CCNCC2)nc2c1c(=O)n(C)c(=O)n2C [Example 147, 7-(2-Vinylphenyl)-1,3-dimethyl-8-(piperazin-1-yl)-3,7-dihydropurine-2,6-dione trifluoroacetate]	13%
Cn1c(=O)[nH]c(=O)c2c1nc(N1CCNCC1)n2-c1ccccc1Cl [Example 156, 7-(2-Chlorophenyl)-3-methyl-8-(piperazin-1-yl)-3,7-dihydropurine-2,6-dione trifluoroacetate]	0.9%
COc1ccccc1-n1c(N2CCNCC2)nc2c1c(=O)n(CC#N)c(=O)n2C [Example 166, [7-(2-Methoxyphenyl)-3-methyl-2,6-dioxo-8-(piperazin-1-yl)-2,3,6,7-tetrahydropurin-1-yl]acetonitrile trifluoroacetate]	16.1%
C=Cc1ccccc1-n1c(N2CCNCC2)nc2c1c(=O)[nH]c(=O)n2C [Example 174, 7-(2-Vinylphenyl)-3-methyl-8-(piperazin-1-yl)-3,7-dihydropurine-2,6-dione]	-9.1%
NC(=O)Cn1c(=O)[nH]c(=O)c2c1nc(N1CCNCC1)n2-c1ccccc1Cl [Example 194, 2-[7-(2-Chlorophenyl)-2,6-dioxo-8-(piperazin-1-yl)-1,2,6,7-tetrahydropurin-3-yl]-acetamide trifluoroacetate]	9.9%
CC#CCn1c(N2CCNCC2)nc2c1c(=O)n(C)c(=O)n2CC [Example 216, 7-(2-Butynyl)-3-ethyl-1-methyl-8-(piperazin-1-yl)-3,7-dihydropurine-2,6-dione trifluoroacetate]	-5%
CC#CCn1c(N2CCNCC2)nc2c1c(=O)n(C)c(=O)n2Cc1ccccc1 [Example 218, 7-(2-Butynyl)-3-benzyl-1-methyl-8-(piperazin-1-yl)-3,7-dihydropurine-2,6-dione trifluoroacetate]	16.8%
CC#CCn1c(N2CCNCC2)nc2c1c(=O)n(C)c(=O)n2CC(=O)OC [Example 219, [7-(2-Butynyl)-1-methyl-2,6-dioxo-8-(piperazin-1-yl)-1,2,6,7-tetrahydropurin-3-yl]acetic acid methyl ester trifluoroacetate]	-1.4%
CC#CCn1c(N2CCNCC2)nc2c1c(=O)n(C)c(=O)n2CC1CCCO1 (stereo not shown) [Example 226, 7-(2-Butynyl)-3-(2-tetrahydrofuranyl)methyl-1-methyl-8-(piperazin-1-yl)-3,7-dihydropurine-2,6-dione trifluoroacetate]	-5.2%
CC#CCn1c(N2CCNCC2)nc2c1c(=O)n(C)c(=O)n2C(C(=O)OC)c1ccccc1 (stereo not shown) [Example 240, [7-(2-Butynyl)-1-methyl-2,6-dioxo-8-(piperazin-1-yl)-1,2,6,7-tetrahydropurin-3-yl]phenyl acetic acid methyl ester trifluoroacetate]	-2.8%
CC#CCn1c(N2CCNCC2)nc2c1c(=O)n(C)c(=O)n2CCC [Example 243, 7-(2-Butynyl)-3-propyl-1-methyl-8-(piperazin-1-yl)-3,7-dihydropurine-2,6-dione trifluoroacetate]	8.4%
CC#CCn1c(N2CCNCC2)nc2c1c(=O)n(C)c(=O)n2CC(=O)c1ccccc1 [Example 256, 7-(2-Butynyl)-3-(2-oxo-2-phenethyl)-1-methyl-8-(piperazin-1-yl)-3,7-dihydropurine-2,6-dione trifluoroacetate]	2.4%
CC#CCn1c(N2CCNCC2)nc2c1c(=O)n(C)c(=O)n2C(C)C(=O)OCC (stereo not shown) [Example 257, 2-[7-(2-Butynyl)-1-methyl-2,6-dioxo-8-(piperazin-1-yl)-1,2,6,7-tetrahydropurin-3-yl]propionic acid ethyl ester trifluoroacetate]	10.5%
CC#CCn1c(N2CCNCC2)nc2c1c(=O)n(C)c(=O)n2C1CCOC1=O (stereo not shown) [Example 263, 7-(2-Butynyl)-3-(2-oxo-tetrahydrofuran-3-yl)-1-methyl-8-(piperazin-1-yl)-3,7-dihydropurine-2,6-dione trifluoroacetate]	16.4%
CC#CCn1c(N2CCNCC2)nc2c1c(=O)n(C)c(=O)n2CCOCC [Example 266, 7-(2-Butynyl)-3-(2-ethoxyethyl)-1-methyl-8-(piperazin-1-yl)-3,7-dihydropurine-2,6-dione trifluoroacetate]	-2.3%
CC#CCn1c(N2CCNCC2)nc2c1c(=O)n(C)c(=O)n2C(C)C [Example 270, 7-(2-Butynyl)-3-isopropyl-1-methyl-8-(piperazin-1-yl)-3,7-dihydropurine-2,6-dione trifluoroacetate]	7.3%
CC#CCn1c(N2CCNCC2)nc2c1c(=O)n(C)c(=O)n2CC(=O)C(C)(C)C [Example 274, 7-(2-Butynyl)-3-(3,3-dimethyl-2-oxobutyl)-1-methyl-8-(piperazin-1-yl)-3,7-dihydropurine-2,6-dione trifluoroacetate]	1.9%
CC#CCn1c(N2CCNCC2)nc2c1c(=O)n(C)c(=O)n2C1CCNC1=O (stereo not shown) [Example 284, 7-(2-Butynyl)-1-methyl-3-(2-oxopyrrolidin-3-yl)-8-(piperazin-1-yl)-3,7-dihydropurine-2,6-dione hydrochloride]	11.3%
CC#CCn1c(N2CCNCC2)nc2c1c(=O)[nH]c(=O)n2CCOCC [Example 321, 7-(2-Butynyl)-3-(2-ethoxyethyl)-8-(piperazin-1-yl)-3,7-dihydropurine-2,6-dione trifluoroacetate]	16.9%
